Measured values as given in patent US7547729B2, “1,3-diphenylprop-2-en-1-one derivative compounds, preparation method thereof and uses of same” (Genfit, priority 2004, dated 2009).

How the values were obtained:
[1] = tested on: Apo E2/E2 transgenic mice; assay: Effects on triglyceride and cholesterol metabolism in Apo E2/E2 transgenic mice; format: in vivo; conditions: gavage, 50 mg/kg/day, seven days
Procedure: FIGS. 19a, 19b, 19c, 19d, 20a, 20b, 20c and 20d illustrate the effects of treatment with compound 2 (Cpd2), compound 13 (Cpd13), compound 33 (Cpd33) and compound 39 (Cpd39) on triglyceride and cholesterol metabolism in Apo E2/E2 transgenic mice treated by gavage with the compound at a dose of 50 mg/kg/day, for seven days.
Apo E2/E2 transgenic mice were housed in a 12-hour light/dark cycle at a constant temperature of 20±3° C. After a 1-week acclimatization period, the mice were weighed and divided into groups of 6 animals selected such that the distribution of body weight was uniform. The test compounds were suspended in carboxymethylcellulose and administered by gastric lavage at the indicated doses, once a day for 7 days. Animals had access to food and water ad libitum. At the end of the experiments, animals were weighed and sacrificed under anesthesia. Blood was collected on EDTA. Plasma was isolated by centrifugation at 3000 rpm for 20 minutes. Liver samples were removed and stored frozen in liquid nitrogen for later analysis.
Lipid concentrations in plasma (total cholesterol and free cholesterol, triglycerides and phospholipids) were determined by a colorimetric assay (Boehringer, Mannheim, Germany) according to the supplier's instructions. Plasma concentrations of apolipoproteins AI, AII and CIII were determined as previously described (Raspe et al. 1999, Asset G et al., Lipids, 1999).

PPARα = molecular target: T1, PPARα (Homo sapiens, UniProt Q07869); assay: PPARα/Gal4 transactivation system in RK13 cells; format: cell-based; conditions: 24 hours
T1 construct: expressed in transfected cells; host or cells: COS-7 cells
T1 sequence (Q07869 239-466 limits assumed): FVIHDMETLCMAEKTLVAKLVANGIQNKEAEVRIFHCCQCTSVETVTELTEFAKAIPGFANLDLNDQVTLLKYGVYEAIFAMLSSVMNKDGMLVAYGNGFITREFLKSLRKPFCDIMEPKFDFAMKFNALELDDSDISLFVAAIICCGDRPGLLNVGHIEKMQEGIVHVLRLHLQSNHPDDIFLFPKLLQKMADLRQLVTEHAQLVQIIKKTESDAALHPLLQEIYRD
Procedure: (§1) RK13 cells were incubated with the compound 2 at concentrations comprised between 0.01 and 10 μM for 24 hours. The results are expressed as the induction factor (ratio of luminescent signal obtained with the compound and that observed without the compound) after the different treatments.
PPAR activation was tested in vitro in RK13 epitheloid or COS-7 cell lines by measuring the transcriptional activity of chimeras composed of the DNA binding domain of the yeast gal4 transcription factor and the ligand binding domain of the different PPARs. These latter results were then confirmed in cell lines according to the following protocols: […]
RK13 cells were seeded in 24-well culture dishes at 5×10^4 cells/well, COS-7 cells in 96-well culture dishes at 5×10^4 cells/well and transfected for 2 hours with the reporter plasmid pG5TkpGL3 (50 ng/well), the expression vectors pGal4-φ, pGal4-mPPARα, pGal4-hPPARα, pGal4-hPPARγ, pGal4-hPPARδ (100 ng/well) and the transfection efficiency control vector pRL-CMV (1 ng/well) according to the previously described protocol (Raspe, Madsen et al. 1999), then incubated for 36 hours with the test compounds. […] The protein content of the cell extracts was then measured with the Bio-Rad Protein Assay (Bio-Rad, Munich, Germany) as directed by the supplier.

PPARγ = molecular target: T2, PPARγ (Homo sapiens, UniProt P37231); assay: PPARγ/Gal4 transactivation system in RK13 cells; format: cell-based; conditions: 24 hours
T2 construct: expressed in transfected cells; host or cells: COS-7 cells
T2 sequence (P37231 238-503 limits assumed): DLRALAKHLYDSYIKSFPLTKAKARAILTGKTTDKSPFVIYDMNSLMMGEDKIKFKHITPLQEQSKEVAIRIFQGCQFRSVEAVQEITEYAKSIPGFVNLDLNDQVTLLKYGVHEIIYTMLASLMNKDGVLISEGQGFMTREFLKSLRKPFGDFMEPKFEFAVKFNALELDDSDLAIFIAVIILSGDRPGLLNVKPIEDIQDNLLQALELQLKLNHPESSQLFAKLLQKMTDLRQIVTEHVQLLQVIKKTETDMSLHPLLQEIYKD
Procedure: as §1
PPAR activation was tested in vitro in RK13 epitheloid or COS-7 cell lines by measuring the transcriptional activity of chimeras composed of the DNA binding domain of the yeast gal4 transcription factor and the ligand binding domain of the different PPARs. These latter results were then confirmed in cell lines according to the following protocols:
RK13 cells were from ECACC (Porton Down, UK), COS-7 cells were from the ATCC (American Type Culture Collection) and were grown in DMEM medium supplemented with 10% (VN) fetal calf serum, 100 U/ml penicillin (Gibco, Paisley, UK) and 2 mM L-glutamine (Gibco, Paisley, UK). The culture medium was changed every two days. Cells were kept at 37° C. in a humidified 95% air/5% CO2 atmosphere.
The plasmids pG5TkpGL3, pRL-CMV, pGal4-hPPARα, pGal4-hPPARγ, pGal4-hPPARδ and pGal4-φ have been described by Raspe, Madsen et al. (1999). The pGal4-mPPARα, pGal4-hPPARγ and pGal4-hPPARδ constructs were obtained by cloning into the pGal4-φ vector of PCR-amplified DNA fragments corresponding to the DEF domains of the human PPARα, PPARγ and PPARδ nuclear receptors.
RK13 cells were seeded in 24-well culture dishes at 5×10^4 cells/well, COS-7 cells in 96-well culture dishes at 5×10^4 cells/well and transfected for 2 hours with the reporter plasmid pG5TkpGL3 (50 ng/well), the expression vectors pGal4-φ, pGal4-mPPARα, pGal4-hPPARα, pGal4-hPPARγ, pGal4-hPPARδ (100 ng/well) and the transfection efficiency control vector pRL-CMV (1 ng/well) according to the previously described protocol (Raspe, Madsen et al. 1999), then incubated for 36 hours with the test compounds. At the end of the experiment, the cells were lysed (Gibco, Paisley, UK) and luciferase activity was determined with a Dual-Luciferase™ Reporter Assay System kit (Promega, Madison, Wis., USA) for RK13 cells and Steady Glow Luciferase (Promega) for COS-7 cells according to the supplier's instructions as previously described. The protein content of the cell extracts was then measured with the Bio-Rad Protein Assay (Bio-Rad, Munich, Germany) as directed by the supplier.

LDL = assay: Protection against LDL oxidation by copper (conjugated diene formation); format: biochemical; conditions: 10^−4M
Procedure: Unless otherwise indicated, the reagents were from Sigma (St Quentin, France). LDL were prepared according to the method described by Lebeau et al. (Lebeau, Furman et al. 2000).
The solutions of test compounds were prepared at 10^−2 M concentration in bicarbonate buffer (pH 9) and diluted in PBS to obtain final concentrations ranging from 0.1 to 100 μM
Prior to oxidation, EDTA was removed from the LDL preparation by dialysis. Oxidation then took place at 30° C. by adding 100 μl of 16.6 μM CuSO4 solution to 160 μL of LDL (125 μg protein/ml) and 20 μl of a test compound solution. The formation of dienes, the species under observation, was followed by measuring optical density at 232 nm in the samples treated with the compounds in the presence or absence of copper. Optical density at 232 nm was measured every 10 minutes for 8 hours in a thermostated spectrophotometer (Tecan Ultra 380). The analyses were performed in triplicate. The compounds were considered to have antioxidant activity when they induced a longer lag phase and reduced the rate of oxidation and the amount of dienes formed in comparison with the control sample.

Which plasma cholesterol [1] does the source give for `CCCCCSCCOc1ccc(C(=O)/C=C/c2cc(C)c(OC(C)(C)C(=O)O)c(C)c2)cc1` [compound 2, 1-(4-(Pentylthioethyloxy)phenyl)-3-(4-carboxydimethylmethyloxy-3,5-dimethylphenyl)prop-2-en-1-one] here?
The plasma cholesterol was “decrease”.

What about the plasma triglycerides [1] of the same compound?
Its plasma triglycerides is “decrease”.

What about the Induction factor (PPARα; 1 μM) of the same compound?
Its Induction factor is 8.83.

And the Induction factor (PPARα; 10 μM)?
The Induction factor was 18.49.

And the Induction factor (PPARγ; 0.01 μM)?
The Induction factor was 1.31.

And the Induction factor (PPARγ; 0.03 μM)?
The Induction factor was 1.18.

And the Induction factor (PPARγ; 0.1 μM)?
Its Induction factor is 1.73.

And the Induction factor (PPARγ; 0.3 μM)?
Its Induction factor is 4.58.

And the Induction factor (PPARγ; 1 μM)?
The Induction factor was 9.50.

What about the Induction factor (PPARγ; 3 μM) of the same compound?
The Induction factor was 16.64.

And the Induction factor (PPARγ; 10 μM)?
Its Induction factor is 31.00.

And the “lag phase of conjugated diene formation” value (LDL; FIG. 1a, copper alone 120 minutes)?
Its value is 314 min.

What about the “rate of diene formation” value (LDL; FIG. 1b, copper alone 1.8) of the same compound?
The value was 0.1 nmol/min/mg of LDL.

What about the “maximum amount of conjugated dienes formed” value (LDL; FIG. 1c, copper alone 372) of the same compound?
Its value is 35 nmol/mg.

And the “decrease in the amount of conjugated dienes formed” value (LDL; FIG. 1c, versus copper alone)?
Its value is 90%.
